For data set [1], the system named is rgRSV224 virus. In words: microbe, parasite or virus in culture. Type of data set: cell-based, respiratory syncytial virus (RSV). The conditions noted are these: human respiratory syncytial virus, HeLa, 72 h, read-out: WT activity EC50. The procedure:
(§1) Black 96-well clear-bottom microtiter plates (Corning, Amsterdam, The Netherlands) were filled in duplicate using a customized robot system with serial 4-fold dilutions of compound in a final volume of 50 μl culture medium [RPMI medium without phenol red, 10% FBS, 0.04% gentamycin (50 mg/ml) and 0.5% DMSO]. Then, 100 μl of a HeLa cell suspension (5×10^4 cells/ml) in culture medium was added to each well followed by the addition of 50 μl rgRSV224 (MOI=0.02) virus in culture medium using a multidrop dispenser (Thermo Scientific, Erembodegem, Belgium). rgRSV224 virus is an engineered virus that includes an additional GFP gene (Hallak et al, 2000) and was in-licensed from the NIH (Bethesda, Md., USA). Medium, virus- and mockinfected controls were included in each test. Cells were incubated at 37° C. in a 5% CO2 atmosphere. Three days post-virus exposure, viral replication was quantified by measuring GFP expression in the cells by a MSM laser microscope (Tibotec, Beerse, Belgium). The EC50 was defined as the 50% inhibitory concentration for GFP expression. In parallel, compounds were incubated for three days in a set of white 96-well microtitier plates (Corning) and the cytotoxicity of compounds in HeLa cells was determined by measuring the ATP content of the cells using the ATPlite kit (PerkinElmer, Zaventem, Belgium) according to the manufacturer's instructions. The CC50 was defined as the 50% concentration for cytotoxicity.

Data set [2] can be described thus: Cytotoxicity in HeLa cells, ATP content (ATPlite kit). The class given is cell-based. The following applies: human. Here is the method:
as §1
(ATP-based viability assays read luminescence as a measure of living cells.)

Setting [3] is: HeLa cells, three days incubation, ATP content, read-out: Toxicity CC50.

Read-outs that look alike come from different tables or passages of the source.

One may read the EC50 as the concentration at which the effect is half-maximal. The term CC50 denotes the concentration giving 50% cytotoxicity. As to `O=c1n(Cc2cc3cc(Cl)ccc3n2CCCCO)c2cnccc2n1C1CC1` [Compound 7, 3-((5-Chloro-1-(4-hydroxybutyl)-1H-indol-2-yl)methyl)-1-cyclopropyl-1H-imidazo[4,5-c]pyridin-2(3H)-one], the EC50 in data set [1] worked out at 2.24 nM. Moreover, half-maximal cytotoxicity in data set [2] (CC50 at 3 days) was put at 47600 nM.

Consider `O=c1n(Cc2cc3cc(Br)ccc3n2CCCCO)c2cnccc2n1C1CC1` [Compound 4, 3-((5-bromo-1-(4-hydroxybutyl)-1H-indol-2-yl)methyl)-1-cyclopropyl-1H-imidazo[4,5-c]pyridin-2(3H)-one], for which the concentration giving a half-maximal response (EC50) in data set [1] turned out to be 1.12 nM. The CC50 at 3 days in data set [2] (setting [3]) was 48700 nM.

As for `COc1ccc2c(c1)cc(Cn1c(=O)n(C3CC3)c3ccncc31)n2CCCCO` [Compound 10, 1-Cyclopropyl-3-((1-(4-hydroxybutyl)-5-methoxy-1H-indol-2-yl)methyl)-1H-imidazo[4,5-c]pyridin-2(3H)-one], the EC50 in data set [1] is 38.3 nM. In addition, the CC50 at 3 days in data set [2] was greater than 9840 nM.

Take `CCOC(=O)c1c(Cn2c(=O)n(C3CC3)c3ccncc32)n(CCC(C)C)c2ccccc12` [Compound 18, ethyl 2-((1-cyclopropyl-2-oxo-1H-imidazo[4,5-c]pyridin-3(2H)-yl)methyl)-1-isopentyl-1H-indole-3-carboxylate]: in data set [1], the EC50 amounted to 3010 nM. The CC50 at 3 days in data set [2] (setting [3]) amounted to 32100 nM.

Consider `CS(=O)(=O)CCCn1c(Cn2c(=O)n(C3CC3)c3ccncc32)cc2cc(Br)ccc21` [Compound 2, 3-((5-bromo-1-(3-(methylsulfonyl)propyl)-1H-indol-2-yl)methyl)-1-cyclopropyl-1H-imidazo[4,5-c]pyridine-2(3H)-one], for which, in data set [1], the EC50 stood at 0.288 nM. In addition, the CC50 at 3 days in data set [2] was greater than 9840 nM.

Take `CS(=O)(=O)CCCn1c(Cn2c(=O)n(C3CC3)c3ccc(F)cc32)cc2cc(Cl)ccc21` [Compound 8, 3-((5-Chloro-1-(3-(methylsulfonyl)propyl)-1H-indol-2-yl)methyl)-1-cyclopropyl-5-fluoro-1H-benzo[d]imidazol-2(3H)-one]: the EC50 in data set [1] was determined as 3.79 nM. This molecule also registered a CC50 at 3 days in data set [2] greater than 9840 nM.

In the case of `O=c1n(Cc2cc3ccc(Cl)cc3n2CCCCO)c2cnccc2n1C1CC1` [Compound 16, 3-((6-Chloro-1-(4-hydroxybutyl)-1H-indol-2-yl)methyl)-1-cyclopropyl-1H-imidazo[4,5-c]pyridin-2(3H)-one], the concentration for a half-maximal effect (EC50) in data set [1] was found to be 124 nM. The same molecule displayed a CC50 at 3 days in data set [2] greater than 9840 nM.

As to `CC(C)CCn1c(Cn2c(=O)n(C3CC3)c3ccncc32)cc2ccccc21` [Compound 12, 1-cyclopropyl-3-((1-isopentyl-1H-indol-2-yl)methyl)-1H-imidazo[4,5-c]pyridin-2(3H)-one], the EC50 in data set [1] stood at 361 nM. In data set [2], this molecule had a CC50 at 3 days of 65500 nM.

With `CS(=O)(=O)CCCn1c(Cn2c(=O)n(C3COC3)c3ccncc32)cc2cc(Br)ccc21` [Compound 5, 3-((5-Bromo-1-(3-(methylsulfonyl)propyl)-1H-indol-2-yl)methyl)-1-(oxetan-3-yl)-1H-imidazo[4,5-c]pyridin-2(3H)-one], the half-maximal effective concentration (EC50) in data set [1] stood at 1.56 nM. In data set [2], this molecule yielded a CC50 at 3 days greater than 9840 nM.

Source of the values: patent US9321768B2, “Indoles as respiratory syncytial virus antiviral agents” (JANSSEN SCIENCES IRELAND UC, priority 2010, dated 2016).
